From patent US5710174A, “Factor XIIIA inhibitor” (Zymo Genetics, Inc., priority 1995, dated 1998)
Where two headings read alike, the source gives them in different places.

How the values were obtained:
Assay type in all cases: biochemical
FXIIIa = molecular target: T1, FXIIIa (Homo sapiens, UniProt P00488); experiment: Primary FXIIIa screening assay (cross-linking of biotinylated fibrinogen and immobilized fibronectin)
T1 sequence (P00488 39-732 limits assumed): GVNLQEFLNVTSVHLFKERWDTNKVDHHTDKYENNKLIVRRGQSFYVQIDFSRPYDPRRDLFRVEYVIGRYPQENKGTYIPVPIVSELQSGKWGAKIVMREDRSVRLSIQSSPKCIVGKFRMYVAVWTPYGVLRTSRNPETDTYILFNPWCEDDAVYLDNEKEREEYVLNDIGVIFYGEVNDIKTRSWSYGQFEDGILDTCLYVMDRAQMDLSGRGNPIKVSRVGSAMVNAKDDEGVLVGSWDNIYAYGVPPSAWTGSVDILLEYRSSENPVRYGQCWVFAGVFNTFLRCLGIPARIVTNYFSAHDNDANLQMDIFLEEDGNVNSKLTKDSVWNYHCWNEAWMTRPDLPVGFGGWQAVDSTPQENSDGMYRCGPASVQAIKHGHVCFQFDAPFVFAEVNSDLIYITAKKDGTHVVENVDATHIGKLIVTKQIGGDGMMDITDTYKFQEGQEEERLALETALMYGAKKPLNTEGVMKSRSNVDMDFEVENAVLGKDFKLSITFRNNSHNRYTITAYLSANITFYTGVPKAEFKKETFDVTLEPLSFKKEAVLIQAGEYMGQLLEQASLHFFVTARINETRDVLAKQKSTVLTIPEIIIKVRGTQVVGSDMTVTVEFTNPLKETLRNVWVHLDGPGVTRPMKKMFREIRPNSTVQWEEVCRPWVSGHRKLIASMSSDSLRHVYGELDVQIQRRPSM
Description: The primary FXIIIa screening assay used a 96-well high throughput assay format. This assay assesses test sample inhibition of FXIIIa catalyzed cross-linking of biotinylated fibrinogen and immobilized fibronectin.
Test samples (possibly containing FXIIIa inhibitors) were added to 96-well plates coated with fibronectin, followed by the addition of FXIIIa, as described in the primary FXIIIa screening assay, below. Biotinylated fibrinogen was added to the wells, and streptavidin-alkaline phosphatase was used to detect biotinylated fibrinogen that had been cross-linked to fibronectin.
Purified fibronectin was diluted to 1 μg/ml in 0.1M Na2 CO3, pH 9.7, and added to control and test assay wells of 96-well plates at 100 μl/well. All wells were incubated overnight at 4° C.
After incubation, the plate wells were washed twice with 200 μl/well of wash buffer per wash to remove all fibronectin not bound to the wells. The wash buffer contained 0.135M NaCl, 2.7 mM KCl, 25 mM Tris at about pH 7.4, and 0.1% Tween 20® (Sigma Chemical Co., St. Louis, Mo.; polyoxyethylenesorbitan monolaurate). The plate wells were then blocked with 200 μl/well blocking buffer and incubated for 1-2 h at 37° C. The blocking buffer contained 0.135M NaCl, 2.7 mM KCl, 25 mM Tris at about pH 7.4, 0.1% Tween 20®, and 0.5% BSA (bovine serum albumin, Sigma fraction V; Sigma). After incubation, the plates wells were again washed with 200 μl/well of wash buffer to remove excess blocking buffer.
Briefly, fibrinogen was dialyzed against 0.1M NaHCO3, pH 8.5 (coupling buffer) at a concentration of 1 mg/ml. BNHS was dissolved in dimethylformamide at a concentration of 1.7 mg/ml, and added to fibrinogen in coupling buffer at a ratio of 30 μl BNHS to 1 ml fibrinogen. The mixture was incubated with rocking for 4 h at room temperature, dialyzed against PBS, and stored in aliquots at -80° C.
Biotinylated fibrinogen (40 μl of 20 μg/ml solution) was added to each plate well. Except in control wells (which received 10 μl of 10% DMSO alone), 10 μl of each of the 11,198 crude extracts in 10% DMSO were added to duplicate wells after the addition of biotinylated fibrinogen, resulting in a 1% final assay concentration of DMSO.
FXIIIa (recombinant human FXIIIa2 (ZymoGenetics), as described in European Patent No. 0 268 772, granted Apr. 26, 1995, and incorporated herein by reference) was diluted to 100 μg/ml in a solution of 50 mM Tris, 5 mM CaCl2 at pH 7.4 containing 1 unit/ml thrombin (bovine; Enzyme Research Labs) and incubated for 20 min at 37° C. FXIIIa then was diluted to 1 μg/ml in a cross-linking buffer consisting of the blocking buffer described above plus 20 mM CaCl2 and 75 ng/ml D-phenylalanyl-L-prolyl-L-arginine chloromethyl ketone (PPACK; Calbiochem, La Jolla, Calif.). Fifty microliters of FXIIIa in cross-linking buffer was added to each test and control well. All wells then were incubated for about 10 min at 37° C.
After incubation, the wells were washed twice with 200 μl/well of wash buffer to remove all biotinylated fibrinogen that was not cross-linked to fibronectin.

[1] = molecular target: T2, tissue transglutaminase (tTG) (Cavia cutleri, UniProt P08587); experiment: tTG screening assay
T2 construct: purchased Sigma
T2 sequence (P08587 1-690): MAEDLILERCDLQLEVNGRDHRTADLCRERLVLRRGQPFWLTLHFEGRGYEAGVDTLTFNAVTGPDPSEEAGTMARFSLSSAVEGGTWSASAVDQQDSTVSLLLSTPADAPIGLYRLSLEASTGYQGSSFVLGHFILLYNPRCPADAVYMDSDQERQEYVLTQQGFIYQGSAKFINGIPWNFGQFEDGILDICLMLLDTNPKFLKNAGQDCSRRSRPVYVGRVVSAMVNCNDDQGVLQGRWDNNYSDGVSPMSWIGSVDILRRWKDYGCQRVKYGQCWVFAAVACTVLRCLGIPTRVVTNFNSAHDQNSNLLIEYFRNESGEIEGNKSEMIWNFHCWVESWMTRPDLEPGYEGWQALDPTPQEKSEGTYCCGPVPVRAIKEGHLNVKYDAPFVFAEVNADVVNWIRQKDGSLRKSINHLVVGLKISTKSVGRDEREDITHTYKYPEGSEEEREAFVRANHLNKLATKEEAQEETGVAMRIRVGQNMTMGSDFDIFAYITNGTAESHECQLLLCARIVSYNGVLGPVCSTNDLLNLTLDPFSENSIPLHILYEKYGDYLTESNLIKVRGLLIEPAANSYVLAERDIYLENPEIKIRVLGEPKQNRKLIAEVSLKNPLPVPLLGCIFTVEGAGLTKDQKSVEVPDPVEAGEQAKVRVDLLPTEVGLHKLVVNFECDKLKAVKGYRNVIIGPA
Description: Because FXIII is a member of the tissue transglutaminase (tTG) family, all potential FXIIIa inhibitors identified in the primary FXIIIa screening assay were further screened for tTG (non-FXIII-specific) inhibitory activity. The tTG screening assay was identical to the primary FXIIIa screening assay, except that tTG (Sigma) was used instead of FXIIIa and no thrombin or PPACK was used.
The determination of IC50 values was done the same as in the primary FXIIIa screening assay, except that purified compounds were used at varying concentrations (instead of crude culture extracts). The IC50 values allow one to make comparisons of one compound to another.

papain = molecular target: T3, papain (Carica papaya, UniProt P00784); experiment: Papain inhibition assay; conditions: for Papain inhibition (result in words, IC50 table): 100 μM to 10 nM, 30 min at 37° C.
T3 construct: purchased Boehringer Mannheim
T3 sequence (P00784 134-345): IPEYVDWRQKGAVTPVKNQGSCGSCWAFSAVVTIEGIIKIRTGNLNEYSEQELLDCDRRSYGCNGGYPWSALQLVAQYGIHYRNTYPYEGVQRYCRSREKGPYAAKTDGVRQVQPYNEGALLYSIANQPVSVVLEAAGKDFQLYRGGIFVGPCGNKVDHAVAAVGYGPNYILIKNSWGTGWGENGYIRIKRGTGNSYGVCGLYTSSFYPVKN
Description: For the papain inhibition assay, a buffer containing 0.1M NaPO4 and 2.5 mM EDTA at about pH 7.0 was used. An Azocoll™ solution was prepared by adding 5 mg Azocoll™ (Calbiochem; an insoluble, powdered cowhide to which a bright red dye is attached (azo-dye-bound collagen)) to the buffer while stirring. The Azocoll was prewarmed to about 37° C. 10 μl of 0.1M L-cysteine, 10 μl of 50 μg/ml papain (Boehringer Mannheim), 0.5 ml of Azocoll solution, and 50 μl of one of a series of concentrations of ZG-1400a, iodoacetamide, iodoacetic acid, cerulenin, or 50 μl of the DMSO or ethanol negative controls were added to duplicate 13×75 mm glass tubes. The ZG-1400a, iodoacetamide, and iodoacetic acid were individually prepared in 10% DMSO and tested using half-log dilutions, starting at a final assay concentration of 100 μM and diluting to 10 nM. Cerulenin was prepared in 10% ethanol and tested using half-log dilutions, starting at a final assay concentration of 100 μM and diluting to 10 nM. A negative (no inhibition) control for ZG-1400a, iodoacetamide and iodoacetic acid was 50 μl of 10% DMSO to give a final assay concentration of 1% DMSO in each control tube. A negative control for cerulenin was 50 μl of 10% ethanol to give a final assay concentration of 1% ethanol in each control tube. The test and control tubes then were incubated for 30 min at 37° C. in an agitated water bath.
After incubation, all of the tubes were centrifuged at 2000 RPM for 5 min. The supernatant was removed and its absorbance was read at 520 nm on a Beckman DU640 spectrophotometer to determine the amount of papain inhibition.

[2] = purified compound, read-out: IC50 FXIIIa Primary Screen
[3] = purified compound, read-out: IC50 tTG Screen

| Compound | IC50 (FXIIIa; [2]) | IC50 [1, 3] | Papain inhibition (result in words, IC50 table) (papain) | Papain inhibition (result in words, IC50 table) (papain; listed as cerulenin) | IC50 (FXIIIa) | IC50 [1] | IC50 (papain) | inhibition of FXIIIa (FXIIIa; 0.01X concentration) | inhibition of tTG ([1]; 0.01X concentration) | inhibition of tTG ([1]; 0.1X concentration) | Papain inhibition (result in words, IC50 table) (papain; listed as ZG-1400a) | Papain inhibition (result in words, IC50 table) (papain; listed as ZG-1440) |
| --- | --- | --- | --- | --- | --- | --- | --- | --- | --- | --- | --- | --- |
| CC=CCC=CCCC(=O)C1OC1C(N)=O (stereo not drawn) [Cerulenin, 2,3-epoxy-4-oxo-7,10-dodecadienamide] | 29 µM | 25 µM | No inhibition | did not inhibit papain activity |  |  |  |  |  |  |  |  |
| NC(=O)CI [Iodoacetamide, iodoacetamide] |  |  | did cause inhibition |  | 320 µM | 10 µM | 0.01 µM |  |  |  |  |  |
| C[C@@H]1CCC/C=C\C(=O)Cc2cc(O)cc(O)c2C(=O)O1 [ZG-1400, R(-) enantiomer of cis-resorcylide] | 5.7 µM | 3.1 µM |  |  |  |  |  | about 65% | about 95% | about 70% | did not inhibit papain activity | No inhibition |
